Results taken from publication PMC6122585 (Bioconjugate chemistry, 2017).

Tests used:
[1] = system: αvβ3; conditions: cited from earlier work
[2] = system: αvβ5; conditions: cited from earlier work
[3] = system: SW480 ITGB6 high cells; assay: Long-term cytotoxicity, SW480 ITGB6 high; type: cell-based, human; conditions: SW480 versus SW480 ITGB6 high, Figure S7

## c(RGDfK)
[1]
  αvβ3 integrin targeting (in words): target αvβ3 and αvβ5 integrins
[2]
  αvβ5 integrin targeting (in words): target αvβ3 and αvβ5 integrins

## cilengitide (RGDFV; chains of the INN, looked up)
[3]
  effect of ITGB6 transfection on sensitivity: ITGB6 transfection did not impact on the sensitivity
